Experimental data reported in patent publication US8778939B2, “Compounds” (Glaxo Group Limited, priority 2009, dated 2014).

What was measured:
[1] = biological target: T1, 6His-Tev-LRRK2 (1326-2527) (Homo sapiens, UniProt Q5S007); experiment: LRRK2 AlphaScreen desensitised protein substrate assay; format: biochemical; settings: excess of ATP present (2 mM ATP); read-out: pIC50 in the LRRK2 alphascreen desensitised protein substrate assay (converted)
T1 construct: A LRRK2 cDNA encoding residues 1326-2527 was received from Dundee University; made in house; host or cells: Spodoptera frugiperda (Sf9) insect cells, baculovirus
T1 sequence (Q5S007 1326-2527): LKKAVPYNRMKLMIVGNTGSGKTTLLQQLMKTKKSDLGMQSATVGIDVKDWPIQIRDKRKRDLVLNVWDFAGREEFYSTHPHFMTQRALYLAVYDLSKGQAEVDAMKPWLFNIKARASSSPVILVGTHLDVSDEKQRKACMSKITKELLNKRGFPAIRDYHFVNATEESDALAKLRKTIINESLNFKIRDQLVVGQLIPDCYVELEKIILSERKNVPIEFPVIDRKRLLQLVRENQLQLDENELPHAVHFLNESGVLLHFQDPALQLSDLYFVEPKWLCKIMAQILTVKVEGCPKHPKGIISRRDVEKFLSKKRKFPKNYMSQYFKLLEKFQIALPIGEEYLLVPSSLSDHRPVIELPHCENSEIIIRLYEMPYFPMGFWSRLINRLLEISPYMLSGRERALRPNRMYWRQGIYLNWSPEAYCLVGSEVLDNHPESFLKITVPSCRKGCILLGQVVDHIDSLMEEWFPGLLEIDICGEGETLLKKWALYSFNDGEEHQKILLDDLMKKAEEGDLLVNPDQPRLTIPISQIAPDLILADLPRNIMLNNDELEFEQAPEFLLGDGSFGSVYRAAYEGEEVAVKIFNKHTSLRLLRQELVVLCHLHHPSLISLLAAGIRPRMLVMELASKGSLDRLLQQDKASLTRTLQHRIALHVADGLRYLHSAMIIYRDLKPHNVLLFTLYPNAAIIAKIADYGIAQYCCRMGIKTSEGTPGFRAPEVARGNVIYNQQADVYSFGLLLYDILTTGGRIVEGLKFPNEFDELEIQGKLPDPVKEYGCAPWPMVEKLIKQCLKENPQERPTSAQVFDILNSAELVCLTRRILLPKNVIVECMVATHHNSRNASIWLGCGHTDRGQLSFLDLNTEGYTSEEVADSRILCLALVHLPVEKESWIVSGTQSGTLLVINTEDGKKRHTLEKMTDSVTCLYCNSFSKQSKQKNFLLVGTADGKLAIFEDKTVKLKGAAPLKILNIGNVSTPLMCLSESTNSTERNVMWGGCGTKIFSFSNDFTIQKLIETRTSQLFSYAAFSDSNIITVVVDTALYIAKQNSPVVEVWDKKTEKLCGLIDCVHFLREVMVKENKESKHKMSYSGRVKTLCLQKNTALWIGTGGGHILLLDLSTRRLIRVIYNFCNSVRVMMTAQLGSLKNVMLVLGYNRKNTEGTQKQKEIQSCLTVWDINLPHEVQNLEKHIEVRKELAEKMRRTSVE
Procedure: (§1) a) 100 nl of a 1:4 serial dilution of test compound with a top final assay concentration of 30 μM is added to certain wells in a low volume 384 well black plate. 100 nl of DMSO is used in certain wells as controls.
b) 3 μl enzyme solution (80 nM purified recombinant 6His-Tev-LRRK2 (1326-2527) in assay buffer: 50 mM Hepes (pH 7.2), 10 mM MgCl2, 150 mM NaCl, 5% glycerol, 0.0025% triton X-100 and 1 mM DTT) is added to certain wells.
Plates are then incubated for a further 1-2 hours at room temperature (incubation time varies depending upon rate and linearity of reaction with differing enzyme batches).
d) 6 μl detection solution (1:250 dilution of AlphaLisa Protein A Acceptor beads (PerkinElmer), 1:64 dilution of AlphaLisa Gluthathione Donor beads (PerkinElmer) and 1:600 dilution (dilution determined on a batch to batch basis) of Phospho-Ezrin (Thr567)/Radixin (Thr564)/Moesin (Thr558) Polyclonal Antibody (New England Biolabs) in a buffer: 50 mM Hepes (pH 7.5), 250 mM NaCl, 60 mM EDTA, 1% PEG and 0.01% Brij 35) is added to each well. Plates are then incubated for a further 2 hours at room temperature in the dark before reading on an EnVision™ plate reader with AlphaScreen HTS turbo option module and AlphaScreen settings. Data is analysed using ActivityBase software (IDBS).
LRRK2 AlphaScreen Desensitised Protein Substrate Assay
This is conducted as described for the LRRK2 alphascreen protein substrate assay, with the following differences: • 1. The concentration of ATP in the substrate solution was 2 mM. • 2. The plates were incubated for 20 minutes at room temperature following addition of the substrate solution. Pharmacological Data

[2] = biological target: T1, 6His-Tev-LRRK2 (1326-2527); experiment: LRRK2 peptide substrate assay; format: biochemical; settings: Biotin-LRRKtide peptide substrate, ATP at Km; read-out: pIC50 in the LRRK2 peptide substrate assay (converted)
Procedure: Compounds of formula (I) may be tested for in vitro kinase activity in accordance with the following assays, using the non natural, in vitro, substrates moesin and the Longer Biotin-LRRKtide. Moesin and a shorter version of the peptide were identified as substrates in Jaleel et al, (2007, Biochem J, 405: 307-317).
LRRK2 Peptide Substrate Assay
as §1
b) 3 μl enzyme solution (80 nM purified recombinant 6His-Tev-LRRK2 (1326-2527) in assay buffer: 50 mM Hepes (pH 7.2), 10 mM MgCl2, 150 mM NaCl, 5% glycerol, 0.0025% triton X-100 and 1 mM DTT) is added to certain wells. […] Plates are then incubated for a further 1-2 hours at room temperature (incubation time varies depending upon rate and linearity of reaction with differing enzyme batches). d) 6 μl detection solution (50 nM Streptavidin SureLight® APC (PerkinElmer), 4 nM Eu-W1024 labelled anti-rabbit IgG antibody (PerkinElmer), 1:500 dilution (dilution determined on a batch to batch basis) of Phospho-Ezrin (Thr567)/Radixin (Thr564)/Moesin (Thr558) Polyclonal Antibody (New England Biolabs) and 60 mM EDTA in buffer: 40 mM Hepes (pH 7.2), 150 mM NaCl, 0.03% BSA) is added to each well. Plates are then incubated for a further 2 hours at room temperature before reading on a suitable plate reader (Excitation 330 nm, emission 620 nm (Eu) and 665 nm (APC)). Data is analysed using ActivityBase software (IDBS). LRRK2 AlphaScreen Protein Substrate Assay

| IC50 [2] [µM] | SMILES | IC50 [1] [µM] |
| --- | --- | --- |
| ≤ 0.01 | O=C(Nc1cccnc1)c1cc(Br)ccc1OCc1ccccc1F [Example 58, 5-Bromo-2-{[(2-fluorophenyl)methyl]oxy}-N-3-pyridinylbenzamide] | ≤ 20 |
|  | COC(=O)NCc1ccc(OCc2ccc(F)c(F)c2)c(C(=O)Nc2cccnc2)c1 [Example 120B, Methyl ({4-{[(3,4-difluorophenyl)methyl]oxy}-3-[(3-pyridinylamino)carbonyl]phenyl}methyl)carbamate] | > 25.1 |
|  | Cc1ccncc1NC(=O)c1cc(-c2ccncc2)ccc1OCc1ccccc1 [Example 52, N-(4-Methyl-3-pyridinyl)-2-[(phenylmethyl)oxy]-5-(4-pyridinyl)benzamide] | > 25.1 |
|  | O=C(Nc1cccnc1)c1cc(S(=O)(=O)N2CCOCC2)ccc1OCc1ccccc1 [Example 41, 5-(4-Morpholinylsulfonyl)-2-[(phenylmethyl)oxy]-N-3-pyridinylbenzamide] | > 25.1 |
|  | O=C(Nc1cccnc1CO)c1cc(-c2ccncc2)ccc1OCc1ccccc1 [Example 55, N-[2-(Hydroxymethyl)-3-pyridinyl]-2-[(phenylmethyl)oxy]-5-(4-pyridinyl)benzamide] | > 25.1 |
|  | O=C(Nc1ccnnc1)c1cc(CN2CCOCC2)ccc1OCc1ccc(F)c(F)c1 [Example 111, 2-{[(3,4-Difluorophenyl)methyl]oxy}-5-(4-morpholinylmethyl)-N-4-pyridazinylbenzamide] | ≤ 20 |
|  | Cn1cc(NC(=O)c2cc(Br)ccc2OCc2ccccc2)cn1 [Example 50, 5-Bromo-N-(1-methyl-1H-pyrazol-4-yl)-2-[(phenylmethyl)oxy]benzamide] | ≤ 20 |
|  | O=C(Nc1cccnc1)c1cc(C(=O)N2CCCCC2)ccc1OCc1ccccc1 [Example 36, 2-[(Phenylmethyl)oxy]-5-(1-piperidinylcarbonyl)-N-3-pyridinylbenzamide] | ≤ 20 |
|  | COc1ncccc1NC(=O)c1cc(-c2ccncc2)ccc1OCc1ccccc1 [Example 53, N-[2-(Methyloxy)-3-pyridinyl]-2-[(phenylmethyl)oxy]-5-(4-pyridinyl)benzamide] | > 25.1 |
|  | CN1CCN(C(=O)c2ccc(OCc3ccccc3)c(C(=O)Nc3cccnc3)c2)CC1 [Example 35, 5-[(4-Methyl-1-piperazinyl)carbonyl]-2-[(phenylmethyl)oxy]-N-3-pyridinylbenzamide] | ≤ 20 |
|  | Cc1nocc1NC(=O)c1cc(C(=O)N2CCOCC2)ccc1OCc1ccc(F)cc1F [Example 126, 2-{[(2,4-Difluorophenyl)methyl]oxy}-N-(3-methyl-4-isoxazolyl)-5-(4-morpholinylcarbonyl)benzamide] | ≤ 20 |
|  | NCc1ccc(OCc2ccc(F)c(F)c2)c(C(=O)Nc2cccnc2)c1 [Example 120A, 5-(Aminomethyl)-2-{[(3,4-difluorophenyl)methyl]oxy}-N-3-pyridinylbenzamide] | > 25.1 |
|  | O=C(Nc1cccnc1)c1cc(S(=O)(=O)N2CCCCC2)ccc1OCc1ccccc1 [Example 42, 2-[(Phenylmethyl)oxy]-5-(1-piperidinylsulfonyl)-N-3-pyridinylbenzamide] | > 25.1 |
| ≤ 0.1 | Cc1oncc1NC(=O)c1cc(-c2cnn(C)c2)ccc1OCc1ccc(F)cc1 [Example 135, 2-{[(4-Fluorophenyl)methyl]oxy}-N-(5-methyl-4-isoxazolyl)-5-(1-methyl-1H-pyrazol-4-yl)benzamide] |  |
|  | O=C(Nc1cnccc1CO)c1cc(-c2ccncc2)ccc1OCc1ccccc1 [Example 56, N-[4-(Hydroxymethyl)-3-pyridinyl]-2-[(phenylmethyl)oxy]-5-(4-pyridinyl)benzamide] | > 25.1 |
|  | O=C(Nc1ccnnc1)c1cc(C(F)(F)F)ccc1OCc1ccc(F)cc1 [Example 132, 2-{[(4-Fluorophenyl)methyl]oxy}-N-4-pyridazinyl-5-(trifluoromethyl)benzamide] | ≤ 20 |
|  | Cn1cc(NC(=O)c2cc(-c3ccncc3)ccc2OCc2ccccc2)cn1 [Example 65, N-(1-Methyl-1H-pyrazol-4-yl)-2-[(phenylmethyl)oxy]-5-(4-pyridinyl)benzamide] | ≤ 20 |
|  | O=C(Nc1cn[nH]c1)c1cc(-c2ccncc2)ccc1OCc1ccccc1 [Example 64, 2-[(Phenylmethyl)oxy]-N-1H-pyrazol-4-yl-5-(4-pyridinyl)benzamide] | ≤ 20 |
|  | O=C(Nc1cccnc1F)c1cc(-c2ccncc2)ccc1OCc1ccccc1 [Example 54, N-(2-Fluoro-3-pyridinyl)-2-[(phenylmethyl)oxy]-5-(4-pyridinyl)benzamide] | ≤ 20 |
|  | CN1CCN(S(=O)(=O)c2ccc(OCc3ccccc3)c(C(=O)Nc3cccnc3)c2)CC1 [Example 43, 5-[(4-Methyl-1-piperazinyl)sulfonyl]-2-[(phenylmethyl)oxy]-N-3-pyridinylbenzamide] | > 25.1 |
|  | Cc1nocc1NC(=O)c1cc(C(=O)N2CCOCC2)ccc1OCc1ccc(F)cc1 [Example 124, 2-{[(4-Fluorophenyl)methyl]oxy}-N-(3-methyl-4-isoxazolyl)-5-(4-morpholinylcarbonyl)benzamide] | > 25.1 |
|  | Cc1nocc1NC(=O)c1cc(C(F)(F)F)ccc1OCc1ccc(F)cc1 [Example 133, 2-{[(4-fluorophenyl)methyl]oxy}-N-(3-methyl-4-isoxazolyl)-5-(trifluoromethyl)benzamide] | > 25.1 |
|  | COc1ccccc1COc1ccc(-c2cnn(C)c2)cc1C(=O)Nc1cccnc1 [Example 114, 2-({[2-(Methyloxy)phenyl]methyl}oxy)-5-(1-methyl-1H-pyrazol-4-yl)-N-3-pyridinylbenzamide] | ≤ 20 |
|  | Cc1oncc1NC(=O)c1cc(-c2ccncc2)ccc1OCc1ccccc1 [Example 62, N-(5-Methyl-4-isoxazolyl)-2-[(phenylmethyl)oxy]-5-(4-pyridinyl)benzamide] | > 25.1 |
